From article PMC6155746 (Molecules : A Journal of Synthetic Chemistry and Natural …, 2017)
Where “and” joins values, the source holds several entries; their conditions need not be identical. Equal values may be shown once. Read-outs that look alike come from different tables or passages of the source. Each block holds one compound with its values, some of them ahead of it.

Experiments:
[1] = Permeability assay, everted rat gut model; assay type: in vitro ADME, Wistar rats; conditions: for Papp at 120 min, 100 μM: male, Wistar, rat, everted rat gut, 37 °C, A-B
Method: Male Wistar rats weighing 200–250 g were used in this research. Everted intestinal sacs were prepared by quickly removing the small intestine from starved rats killed under ether anesthesia. All experiments were carried out after pre-incubation at 37 ± 0.5 °C, with the duodenum and jejunum then excised, flushed-through several times with saline solution at room temperature, and placed immediately into simulated intestinal fluid (SIF). The intestine was gently everted over a steel rod and filled with fresh SIF. The sacs were preincubated in oxygenated buffer solution for 5 min and then placed in 100 mL of oxygenated SIF solution containing 0.0001 M (100 μM) of Compound 1 at 37 °C. Oxygen was bubbled with a pump to maintain viable tissue.
The everted intestinal sac was filled with 1.5 mL of SIF solution, while a test compound solution (0.0001 M) remained external to the everted sac. […] 300 μL samples were collected from inside the sac with a metallic cannula at 5, 10, 15, 30, 45, 60, 90, and 120 min (apical-basolateral transport A-B), after which a medium replacement was made. Both an initial and final sample of the outside solution were analyzed by HPLC.
The apparent intestinal permeability (Papp) was calculated according to Equation (2): (2) Papp=V/(A∗Co)dC/dt where Papp = Apparent Permeability (cm/s), V = Intestinal Volume (mL), A = Surface Area (cm^2), dC/dt = Concentration Gradient, and, Co = Initial Concentration (μg/mL).

[2] = Apparent partition coefficient (octanol-water log D, shake-flask); assay type: physicochemical; conditions: n-octanol/phosphate buffer
Method: The octanol-water distribution coefficient was determined using the shake-flask method. The two phases were mutually saturated by shaking for 15 min. Phosphate buffers were used as the aqueous phase for the pH range 1.2 to 13. 5 mL portions of different buffer solutions (pH 1.2 to 13) containing 100 μg/mL of Compound 1 were mixed with 2.5 mL of n-Octanol. The mixture was shaken for 30 min, centrifuged at 8000× g for 10 min, after which the aqueous and organic phases were separated. Aqueous samples were analyzed at 222 nm using a validated spectrophotometric method (5–200 μg·mL^−1). The distribution coefficient (log D) was calculated according to Equation (1) for each pH value: (1) Log D=log[Compound]org/[Compound ]aq where [Compound]org is the drug concentration in the organic phase (determined by mass balance) and [Compound]aq is the drug concentration in the aqueous phase for each buffer solution. Every experiment was evaluated in triplicate.

[3] = test system: 11β-hydroxysteroid dehydrogenase type 1 (11β-HSD1); design: method as in PMID 23597793; conditions: at 10 μM, HEK293 cells; cited from earlier work
[4] = pKa determination via potentiometric analysis; assay type: physicochemical; conditions: methanol/aqueous solution of ionic strength 0.02 M; Mean (±S.D.), potentiometric titration, triplicate; read-out: pKa1
Method: The determination of pKa was undertaken as described by Babic A. et al.. Compound 1 was prepared by weighing 0.001 equivalents, which were dissolved in the minimum volume of methanol, to which aqueous solution with an ionic strength of 0.02 M was added to obtain a final concentration for Compound 1 of 0.006 M. It was titrated with NaOH 0.01 N, which had been previously evaluated with an ionic strength of 0.02 M using Logger Pro 3.5.0 software (Vernier Software & Technology, Beaverton, OR, USA). The study was conducted in triplicate, determining the final points using the criteria from the first and second derivative test.

[5] = test system: plasma glucose levels; design: method as in PMID 23597793, PMID 23453304; conditions: non-insulin dependent diabetes mellitus rat model, 7 h post-administration, Compound 1 at 50 mg/kg single dose; cited from earlier work
[6] = Bioavailability / pharmacokinetic study, oral and intravenous administration; assay type: in vivo, Wistar rats; design: average clearance (CL): unit not given here; conditions: for half-life: read-out: T1/2el (converted)
Method: Male Wistar rats weighing 250–300 g were used for pharmacokinetic evaluation. Animals were individually identified by tail markings and acclimated to the study environment for seven days prior to the administration of the dose. Animals were kept on a 12 h light/dark cycle except when this was interrupted for study procedures. Animals were kept at average room temperature, which was regulated in the range of 18 to 29 °C. The animals were fasted prior to dose administration, and had access to water ad libitum.
Rats were anesthetized with ether and cannulated via the caudal vein using polyethylene tubing with an internal diameter of 0.023 inches, and an outer diameter of 0.038 inches (Becton Dickinson Clay Adams).
Compound 1 was prepared with Cremophore (10%) in physiologic saline solution and administered orally in a 50 mg/kg dose, and via intravenous bolus (50 mg/kg). Study was conducted in quintuplicate.
After dosing, serial blood samples were collected (0.2 mL) 0, 0.083, 0.16, 0.25, 0.33, 0.50, 0.75, 1.0, 1.5, 2.0, 3.0, 4.0, 6.0, and 8 h after both oral and intravenous administration using heparinized (20 UI) tubes, and were centrifuged at 5000× g for 10 min, with the plasma harvested and analyzed by HPLC using the previously validated method.
The pharmacokinetic parameters of Compound 1 were obtained via non-compartmental analysis using PK software (PKSolver). The STATA statistical program, version 12, was used for the comparison of the following: the pharmacokinetic parameters obtained via both administration pathways (Cmax and Tmax); the elimination rate constant (kel); the biological half-life; the area under the curve (AUC0–t); the area under the curve from zero to infinity (AUC0–∞); volume of distribution (Vd); clearance (Cl); and, absolute bioavailability (F).

[7] = test system: rat; conditions: in vivo, po; cited from earlier work
[8] = reported in the rat, oral; cited from earlier work
[9] = duodenum, read-out: Papp Duodenum
[10] = jejunum, read-out: Papp Jejunum
[11] = Compound 1, intravenous, 50 mg/kg, Wistar rat, mean
[12] = Compound 1, oral, 50 mg/kg, Wistar rat, mean
[13] = male, plasma, Compound 1, intravenous, 50 mg/kg, Wistar rat, mean
[14] = male, plasma, Compound 1, oral, 50 mg/kg, Wistar rat, mean

Papp at 120 min, 100 μM [1, 9]: 8.52 ×10⁻⁶ cm/s
Papp at 120 min, 100 μM [1, 10]: 10 ×10⁻⁶ cm/s
SMILES: CC1(C)S[C@@H]2[C@H](NC(=O)[C@H](N)c3ccc(O)cc3)C(=O)N2[C@H]1C(=O)O [Amoxicillin, amoxicillin, reference compound]

SMILES: CC(C)(Oc1ccc(Cl)cc1)C(=O)Nc1nnn[nH]1 [Compound 1, 2-(4-chlorophenoxy)-2-methyl-N-(1H-tetrazol-5-yl) propanamide]
permeability classification ([1]; compared to the standards naproxen and amoxicillin): low permeability
Papp at 120 min, 100 μM [1, 9]: 8.73 ×10⁻⁶ cm/s
Papp at 120 min, 100 μM [1, 10]: 16.2 ×10⁻⁶ cm/s
log D ([2]; pH 1 to 5): positive
Log D ([2]; pH 7): below zero
inhibition of 11β-HSD1 [3]: 51.17%
pKa [4]: 4.43
reduction in glucose levels in the plasma [5]: up to 77%
average ABC0–α ([6]; Compound 1, intravenous): 38800 ng·h/mL
ABC0–t [6, 11]: 30.5 μg/mL·h
ABC0–α [6, 11]: 38.8 μg/mL·h
Cl [6, 11]: 484.5 mL/h
average ABC0–α ([6]; Compound 1, oral): 2580 ng·h/mL
average clearance (CL) ([6]; Compound 1, oral): 751.2
ABC0–t [6, 12]: 2.37 μg/mL·h
ABC0–α [6, 12]: 2.58 μg/mL·h
Cl [6, 12]: 751.2 mL/h
Ka [6, 12]: 3.05 h⁻¹
clearance ([6]; male, Wistar, rat, plasma, 50 mg/kg, Compound 1, intravenous, read-out: average clearance (CL) (converted)): 8.07 mL/min
half-life ([6]; male, Wistar, rat, plasma, iv, 50 mg/kg, Compound 1, intravenous, 50 mg/kg, Wistar rat, mean): 42.6 min
half-life ([6]; male, Wistar, rat, plasma, po, 50 mg/kg, Compound 1, oral, 50 mg/kg, Wistar rat, mean): ~22.8 min
Vd [6, 13]: 0.4 L and 1.3 L/kg
k el [6, 13]: 0.000336 s⁻¹
bioavailability ([6]; male, plasma, Compound 1, oral vs intravenous, 50 mg/kg, Wistar rat, mean): 10.4%
Cmax [6, 14]: 3570 ng/mL
Tmax [6, 14]: 19.8 min
k el [6, 14]: 0.000503 s⁻¹

SMILES: CC(C)(Oc1ccc(Cl)cc1)C(=O)O [Compound 2, Clofibric acid]
DL50 [7]: 940 mg/kg
average lifetime (half-life) of clofibric acid [8]: 420 to 480 min

SMILES: COc1ccc(Cl)cc1C(=O)NCCc1ccc(S(=O)(=O)NC(=O)NC2CCCCC2)cc1 [glibenclamide, reference compound]
reduction in glucose levels in the plasma [5]: 40%
